Measured values from patent US20060088545A1, “Use of inhibitors of the protease of the human immunodeficiency virus (hiv) to block cell migration and/or invasion, tissue infiltration and oedema for the therary of diseases associated therewith” (priority 2001, published 2006).
Like-named read-outs stand apart in the source and are kept apart here.

Experiments:
[1] = tested on: angiogenesis induced by bFGF or VEGF in the chorioallantoic membrane; details: for VEGF-induced angiogenesis, % of the untreated VEGF control / bFGF-induced angiogenesis, % of the untreated bFGF control / Average vessel (number/mm^2 ± SD): HIV-PI 10 μM; for basal CAM vascularization: drug administered alone; for toxicity in CAM: in vivo
Procedure: CAM assays were performed with 1 mm^3 sterilized gelatin sponges (Gelfoam; Upjohn Co, Kalamazoo, Mich.) adsorbed with bFGF or VEGF (1 μg or 100 ng, respectively) in 5 μl of PBS, and with buffer, HIV-PI (10 μM) or taxol (250 nM) (Bristol-Myers Squibb Co., Princeton, N.J.) as described (Ribatti et al, Int. J. Dev. Biol., 1996). CAM were examined daily until day 12 under an Olympus SZX9 stereomicroscope. Images (1024×1024 pixels) were captured at a distance of 2 mm from the edge of the sponge using a cooled digital CCD Hamamatsu ORCA camera (Hamamatsu Photonics Italia, Arese, Italy). Vessel number was quantified with the ImageProPlus 4.0 imaging software (Media Cybernetics, Silver Spring, Md.) in 3 randomly selected areas per egg ([…]).
Results are expressed as the average number of vessels/mm^2±SD from the indicated number of CAM per experimental condition.

KS cells = assay: KS cell adhesion to fibronectin; assay type: cell-based, human
[2] = tested on: myelo-monocytic leukaemia (U937) cells; assay: Tumour lesions induced by U937 cells in nude mice; assay type: in vivo; details: 5×10^6 cells/site; daily treatment
Procedure: The treatment with HIV-PI or saline solution continued until sacrifice. The size of the lesions present at the injection site was evaluated daily by caliper measurement. External lesion area was then calculated as the product of the two major lesion diameters. The mean size (cm^2) of the lesions present at the injection site is shown.
To determine whether HIV-PI could inhibit the growth of malignant solid and lymphoid tumours, nude mice were inoculated with hepato-carcinoma cells (SK-Hep-1), lung carcinoma cells (A549), breast adeno-carcinoma cells (MDA-MB-468), myelo-monocytic leukaemia cells (U937), and T lymhocytic leukaemia cells (Jurkat).

smooth muscle cells = assay: Invasion assay of smooth muscle cells in response to bFGF; assay type: cell-based, human
From the text: Assays have been essentially performed as described in key to FIGS. 1 and 3. […] Data of duplicate experiments (mean) are shown.

[3] = tested on: primary macrovascular (umbilical vein) endothelial cells (HUVEC); assay: Proliferation assay of HUVEC, basal or bFGF-induced; assay type: cell-based, human; details: for basal or bFGF-induced proliferation (number of cells): 0.1, 1 or 10 μM, 5 days, bFGF 10 ng/ml
Procedure: Human endothelial cells from the umbilical vein (HUVEC, Blo-Whittaker, Verviers, Belgium) were plated in triplicate (1.5×10^4 cells/well) in plates of 12 wells previously covered with gelatine. The next day the cells were incubated for 4 hours in a medium without serum and cultivated in RPMI 1640 medium (Life Technologies, Eragny, France) with the addition of 10% of foetal bovine serum (FBS) together with bFGF in PBS buffer (10 ng/ml) or PBS buffer alone.
The concentrations of HIV-PI used were the same as those present in plasma of treated patients (Deeks et al., 1997).

[4] = tested on: breast carcinoma (MDA-MB468) cells; assay: Invasion assay of MDA-MB468 cells in response to bFGF; assay type: cell-based, human; details: 0.1, 1 or 10 μM
Procedure: Shown is the result of a representative invasion assay performed on the breast carcinoma cells MDA-MB468. […] The invasion assays were performed in the Boyden chamber. Polycarbonate filters ([…]; Nucleoprobe, Cabin John, Md.) were coated first with collagen IV and then with Matrigel (Collaborative Biomedical Products) as described previously (Barillari et al., 1999b). […] Human recombinant bFGF (50 ng/ml) was placed in the lower compartment as chemoattractant. […] Louis, Mo.). Ten random filter fields were counted by light microscopy as described previously (Barillari et al., 1999b). Assays were repeated two times.

bFGF = bFGF production by KS cells (ELISA); assay type: cell-based, human; details: 0.1, 1 and 10 μM; 5 days + 24 hours
Procedure: After 24 hours of incubation, the supernatants of the cultures were tested by ELISA (R & D Systems, Minneapolis, Minn., USA) to determine the quantity of IL-6 present in the medium. The quantity of IL-6 is expressed in pg/ml of supernatant. The same tests were carried out for bFGF, VEGF, IL-1α and IL-1β by means of commercial ELISA kits.
KS cells secrete cytokines with an inflammatory, oedemigenic, angiogenic and proliferative activity with autocrine and paracrine effects (Ensoli and Stürzl, 1998). These factors mediate all the processes required for KS-like lesions formation (angiogenesis, cellular proliferation and invasion, inflammatory Infiltration, oedema) and vascular permeability and oedema induced by KS cells in nude mice. […] The quantity of bFGF, VEGF, IL-1 and IL-6 was dosed with immuno-enzymatic trials in the supernatants of the KS cells after 24 hours of culture in the absence of serum and in the continuous presence of the two HIV-PI (ELISA). […] Furthermore IL-6 plays a key role in the multicentric Cstleman's diseases and in the growth of lymphomas (Tosato et al., 1993; Peterson and Frizzera, 1993; Asou et al., 1998; Ramsay et al., 1994), another type of tumour whose incidence is reduced in patients treated with HIV-PI (International Collaboration on HIV and Cancer 2000).

[5] = tested on: dermal microvascular endothelial cells (H-DMVEC); assay: Invasion assay of dermal microvascular endothelial cells in response to bFGF; assay type: cell-based, human
Procedure: Both assays were performed by the Boyden chamber separated in two compartments by polycarbonate filters with 12 μm pores (Nucleoprobe, Cabin John, Md.), coated with collagen IV (Collaborative Biomedical Products) for migration, or with collagen IV and Matrigel together for invasion, as described previously (Barillari et al., 1999b). […] After 5 hours (migration) or 6 hours (Invasion) of incubation, the non-migrated cells present on the top surface of the filters were mechanically removed, while the migrated cells on the bottom surface were fixed in methanol and stained with toluidine blue (Sigma Chemical Co., St. Louis, Mo.). The cells present in 5-10 microscopic fields of the filters, chosen at random, were counted as described previously (Barillari et al., 1999b).
Basal invasion in the absence of bFGF was assumed as 100%.

[6] = tested on: dermal microvascular endothelial cells (H-DMVEC); assay: Proliferation assay of dermal microvascular endothelial cells with bFGF; assay type: cell-based, human; details: 10 μM; 5 days; bFGF 10 ng/ml
From the text: After 5 days of culture, cells were counted by trypan blue dye exclusion, as described above. Data from duplicate experiments are expressed as the number of […] grown in response to bFGF in the presence of indinavir, saquinavir or HIV-PI-resuspension buffer.

Row | SMILES | VEGF-induced angiogenesis, % of the untreated VEGF control [1] [%] | bFGF-induced angiogenesis, % of the untreated bFGF control [1] [%] | Average vessel (number/mm^2 ± SD) ([1]; VEGF 100 ng) [number/mm^2] | Average vessel (number/mm^2 ± SD) ([1]; bFGF 1 μg, taxol 250 nM) [number/mm^2] | basal CAM vascularization [1] | toxicity in CAM [1] | capability of the KS cells to adhere to a substrate of fibronectin (KS cells) | development of tumour lesions (lesion size) [2] | invasion in response to bFGF (smooth muscle cells) | survival of macrovascular endothelial cells [3] | basal or bFGF-induced proliferation (number of cells) [3] | invasive capacity in response to bFGF [4] | production of bFGF by KS cells (bFGF) | invasion in response to bFGF [5] | proliferation in response to bFGF [6]
1 | CC(C)(C)NC(=O)[C@@H]1CN(Cc2cccnc2)CCN1C[C@@H](O)C[C@@H](Cc1ccccc1)C(=O)N[C@H]1c2ccccc2C[C@H]1O [Indinavir, indinavir] | 36 | 42 | 7.70 ± 2.52 | 8.22 ± 2.54 | did not affect | not associated with toxicity | do not inhibit | inhibit | inhibit | no effect | no effect | inhibit | reduced | inhibit | do not interfere
2 | CC(C)(C)NC(=O)[C@@H]1C[C@@H]2CCCC[C@@H]2CN1C[C@@H](O)[C@H](Cc1ccccc1)NC(=O)[C@H](CC(N)=O)NC(=O)c1ccc2ccccc2n1 [Saquinavir, saquinavir] | 11 | 19 | 5.39 ± 0.67 | 6.08 ± 1.84 | did not affect | not associated with toxicity | do not inhibit | inhibit | inhibit | no effect | no effect | inhibit | reduced | inhibit | do not interfere
